Source: patent publication US20250345277A1, “Ionizable Liposome, Preparation Thereof, and Application Thereof in Gene Delivery” (MAXIRNA (ZHEJIANG) TECHNOLOGY CO. LTD., priority 2021, published 2025)

Legend:
DC2.4 cells = experiment: In vitro transfection of DC2.4 cells with EGFP mRNA LNP preparation (flow cytometry); assay type: cell-based, mouse; conditions: DC2.4 cells; for Cell Viability / Positive Rate (EGFP): EGFP mRNA LNP, 200 ng mRNA per well, flow cytometry; for Fluorescence Intensity: EGFP mRNA expression level, normalized based on the sample with the highest fluorescence intensity
Procedure, shortened: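 DC2.4 is a mouse bone marrow-derived dendritic cell line, grown adherent at 37 °C, 5% CO2 and passaged with trypsin at 80-90% confluence. The EGFP mRNA LNP preparation was diluted in serum-free Opti-MEM to 1 μg/ml mRNA for transfection.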

PBMC cells = experiment: In vitro transfection of PBMC cells with EGFP mRNA LNP preparation (flow cytometry); assay type: cell-based; parameters: Cell Viability: concentration or dose not given beside the values; conditions: PBMCs; for Cell Viability / Positive Rate (EGFP): LNP preparation added with ApoE4; for Fluorescence Intensity: with ApoE4, EGFP mRNA expression level normalized based on the sample with the highest fluorescence intensity
Excerpt: The description is based on peripheral blood mononuclear cells PBMC (Shanghai Oribiotech Co., Ltd.), human peripheral blood leukemia T cell Jurkat (ATCC), tumor infiltrating lymphocyte TIL (isolated from resected tumor tissue of a liver cancer patient, the preparation method refers to CN114763530A), mouse bone marrow-derived dendritic cells DC2.4 (Cell Bank of the Chinese Academy of Sciences), and Chinese hamster ovary cells CHO (ATCC) were used as verified cell lines for liposome transfection. PBMC, Jurkat, and TIL cells grew in suspension, while DC2.4 and CHO cells grew by adherent culture. All the operation steps of cell culture must strictly abide by the prescribed procedures, and sterile reagents is used to perform aseptic operations under a sterile workbench. The main steps are as follows: • 1) Cell recovery: the preserved cell cryopreservation solution was taken out of the −80° C. refrigerator, and was immediately put in a 37° C. water bath for rapid and continuous shaking, and was completely melted within one minute. Fresh medium was added to the 15 mL centrifuge tube in advance, and the cell solution was added to the centrifuge tube in a biological safety cabinet. A centrifuge tube of the same quality was taken and placed symmetrically in a centrifuge, centrifuged at a low speed at 1200 rpm for 5 min. After centrifugation, the supernatant was removed, and an appropriate amount of medium was slowly added along the tube wall. After the cells were evenly dispersed by blowing gently, the cell suspension was pipette and added to the culture bottle prepared in advance. The state and distribution of the cells in the early stage of recovery were observed under a microscope. The culture bottle was placed in a 5% CO2 incubator and incubated at 37° C., and the recovery time was recorded. • 2) Cell subculture: Under the microscope, if the cell density in the field of view reaches 80%-90%, the cells can be subcultured. Adherent cells need to be digested with trypsin. In order to avoid the residual serum in the culture medium to reduce the activity of trypsin, DPBS solution was added to wash once after removing the original culture medium. After remove the DPBS solution, trypsin was added to degrade the protein at the junction between cells. This separates the cells for further culture. The cells were gently shaked evenly and put into the incubator for digestion for 2 min. Immediately after the digestion was completed, an appropriate amount of medium was added to the original petri dish to terminate the digestion. Finally, the cells were carefully blowed off using a pipette and blowed until they are evenly dispersed, and then inoculated and subcultured at a certain ratio according to the experimental requirements.
• 1) Coating antibodies: 6-well plates were pre-coated, CD3 and CD28 antibodies were taken out from the −20° C. refrigerator, and melted for later use. The above two antibodies were added into the DPBS solution at a concentration of 5 µg/mL, mixed well, added into a six-well plate at 1 mL/well, put in a 37° C. incubator, and waited 4 hours for later use. • 2) PBMC recovery: the frozen PBMC cells were taken out from the −80° C. refrigerator, put in a 37° C. water bath to quickly thaw the cells, added to the preheated medium after thawing, centrifuged at 1200 rpm for 5 min, the supernatant was discarded, and an appropriate amount of AIMN-V medium with 500 U/ml IL-2 was added to resuspend PBMC. • 3) the DPBS coated with the antibody was removed with a pipette, the cell suspension was transferred to a six-well plate pre-coated with the antibody at 4 mL per well, placed in a 5% CO2 incubator at 37° C. for 3-5 days for activation and culture. • 4) According to the experimental arrangement, PBMC cells were plated on a 24-well plate 30 minutes in advance on the day of cell transfection. […]

SMILES: CCCCCCCCCCCCC(O)CN(CCOCCOCCN(CCOCCOCCN(CC(O)CCCCCCCCCCCC)CC(O)CCCCCCCCCCCC)CCN1CCN(C)CC1)CC(O)CCCCCCCCCCCC (stereo not drawn) [G-C14]
- Cell Viability (DC2.4 cells): >99.0%
- Positive Rate (EGFP) (DC2.4 cells): 67.5%
- Fluorescence Intensity (DC2.4 cells): 0.30
- Cell Viability (PBMC cells): 79.40%
- Positive Rate (EGFP) (PBMC cells): 63.40%
- Fluorescence Intensity (PBMC cells): 0.1

SMILES: CCCCCCCCCCC(O)CN(CCN1CCN(CCN(CCN(CC(O)CCCCCCCCCC)CC(O)CCCCCCCCCC)CCN(CC(O)CCCCCCCCCC)CC(O)CCCCCCCCCC)CC1)CC(O)CCCCCCCCCC (stereo not drawn) [A-C12]
- Cell Viability (DC2.4 cells): 87.1%
- Positive Rate (EGFP) (DC2.4 cells): 73.3%
- Fluorescence Intensity (DC2.4 cells): 0.84
- Cell Viability (PBMC cells): 89.70%
- Positive Rate (EGFP) (PBMC cells): 73.30%
- Fluorescence Intensity (PBMC cells): 0.72

SMILES: CCCCCCCCCCCCCCC(O)CN(CCN1CCN(CCN(CCN(CC(O)CCCCCCCCCCCCCC)CC(O)CCCCCCCCCCCCCC)CCN(CC(O)CCCCCCCCCCCCCC)CC(O)CCCCCCCCCCCCCC)CC1)CC(O)CCCCCCCCCCCCCC (stereo not drawn) [A-C16]
- Cell Viability (DC2.4 cells): 90.0%
- Positive Rate (EGFP) (DC2.4 cells): 66.3%
- Fluorescence Intensity (DC2.4 cells): 0.80
- Cell Viability (PBMC cells): 90.00%
- Positive Rate (EGFP) (PBMC cells): 76.30%
- Fluorescence Intensity (PBMC cells): 0.81

SMILES: CCCCCCCCCCCCC(O)CN(CCOCCN(CCOCCN(CC(O)CCCCCCCCCCCC)CC(O)CCCCCCCCCCCC)CCN1CCN(C)CC1)CC(O)CCCCCCCCCCCC (stereo not drawn) [F-C14]
- Cell Viability (DC2.4 cells): 93.2%
- Positive Rate (EGFP) (DC2.4 cells): 73.5%
- Fluorescence Intensity (DC2.4 cells): 0.33
- Cell Viability (PBMC cells): 83.20%
- Positive Rate (EGFP) (PBMC cells): 63.70%
- Fluorescence Intensity (PBMC cells): 0.16

SMILES: CCCCCCCCCCCCC(O)CN(CCN(CCN1CCN(C)CC1)CCN(CC(O)CCCCCCCCCCCC)CC(O)CCCCCCCCCCCC)CC(O)CCCCCCCCCCCC (stereo not drawn) [E-C14]
- Cell Viability (DC2.4 cells): >99.0%
- Positive Rate (EGFP) (DC2.4 cells): 84.3%
- Fluorescence Intensity (DC2.4 cells): 0.45
- Cell Viability (PBMC cells): 86.50%
- Positive Rate (EGFP) (PBMC cells): 64.60%
- Fluorescence Intensity (PBMC cells): 0.12
